Data: patent US7662860B2 (priority 2003, dated 2010)
Where two headings read alike, the source gives them in different places.

Assays:
SARS-CoV virus = assay type: cell-based; settings: for CPE / Protective ratio of the infected cells: Vero-E6 cells infected with SARS-CoV; for Protective ratio of the infected cells: >1.5 times judged active

For `CN(C)CCCSc1ccccc1NC(=O)C=Cc1ccccc1` [cinanserin, 2′-(3-dimethylaminopropylthio)cinnamanilide], the CPE (SARS-CoV virus; 4 ug/mL) was “+ (<25% +)”, the “Protective ratio of the infected cells” value (SARS-CoV virus; 4 ug/mL) was 3.69 times and the CPE (SARS-CoV virus; 20 ug/mL) was “+ (<25% +)”. For the same compound, the “Protective ratio of the infected cells” value (SARS-CoV virus; 20 ug/mL) was 3.85 times, the “protective activity of inhibiting SARS-CoV from infecting Vero-E6 cell” value (SARS-CoV virus; result in words) was “evident protective activity” and the “Cytotoxicity of the sample” value (Vero-E6 cell) was “—* (key: *: if the cytotoxicity of the sample is >50% when comparing with the cell control, CPE isn't evaluated, and the protective ratio isn't calculated)”.
